Measured values taken from patent US20040248967A1, “Promoter for production of nitric oxide or nitric oxide synthase, and cosmetic or pharmaceutical composition comprising the same” (AJINOMOTO CO., INC., priority 2001, published 2004).

Tests used:
Assay type in all cases: cell-based
Angioendothelial cells = experiment: Nitric oxide production in cultured angioendothelial cells (Griess method); details: for Formed amount of nitric oxide: 24 hours after addition, L-Arg, L-PCA, GA concentrations (mM) in the medium differ per Example as in Table 1, medium without L-arginine
Method: Angioendothelial cells were cultured using a DMEM medium (Dulbecco-modified MEM) containing 10% fetal bovine serum (FBS). However, phenol red and L-arginine were not added to the medium. The cells were cultured in the medium for 24 hours. After 24 hours of the culture, L-2-pyrrolidone-5-carboxylic acid and L-arginine were added to the medium, the amounts to be added being different for each Example and Comparative Example, as shown in Table 1 below. The culture was further continued for 24 hours.
Thereafter, the produced amount of the nitric oxide was determined by measuring the nitrogen dioxide in the culture supernatant. Nitrogen dioxide was measured by Griess method. The number of the cells in the culture liquid were measured and the formed amount of the nitric oxide per 10^3 cells was expressed in terms of nmol. By the way, as negative controls, the example wherein neither arginine nor pyrrolidonecarboxylic acid was contained (Comparative Example 1) and the example wherein arginine was contained singly (Comparative Example 2) were used. Moreover, as a positive control, the example wherein arginine and glycolic acid were contained (Comparative Example 3) was used.

iNOS = experiment: RT-PCR of iNOS messenger RNA in angioendothelial cells; details: L-PCA 1.0-10.0 mM, 24 hours, RT-PCR 40 cycles
Method: (§1) Angioendothelial cells were cultured using a DMEM medium (Dulbecco-modified MEM) containing 10% fetal bovine serum (FBS). The cells were cultured in the medium for 24 hours. After 24 hours of the culture, the cells were further cultured in the medium to which L-pyrrolidonecarboxylic acid was added so as to achieve a predetermined concentration (See Table 3 given later) for 24 hours, and then the RNA was extracted. For reverse transcription of the RNA, a kit for reverse transcription (manufactured by GIBCO) was used to prepare the cDNA. The cDNA was then subjected to PCR (RT-PCR). Forty cycles of the PCR were carried out under the conditions of denaturing at 95° C. for 30 seconds, annealing at 59° C. for 60 seconds, and extension at 73° C. for 90 seconds.
(§2) As has been described above, using RT-PCR, the expressed amounts of the messenger RNA's of cNOS and iNOS were determined. In this experiment, cNOS was detected, but iNOS was not detected. […] In the table, L-PCA means L-pyrrolidonecarboxylic acid.

cNOS = experiment: RT-PCR of cNOS messenger RNA in angioendothelial cells; details: 24 hours; for Expressed amount of cNOS (Relative ratio): messenger RNA by RT-PCR
Method: as §1, §2

Row | Structure (SMILES) | Formed amount of nitric oxide (Angioendothelial cells) | expressed amount of messenger RNA of iNOS (detection) (iNOS) | promoting effect on the production of nitric oxide (in words) (Angioendothelial cells; angioendothelial cells, 24 hours, comparison at 10 mM of added compound) | amount of cNOS depending on the amount of pyrrolidonecarboxylic acid added (in words) (cNOS; 1.0-10.0 mM, RT-PCR) | Expressed amount of cNOS (Relative ratio) (cNOS; L-PCA added 1.0 mM) | Expressed amount of cNOS (Relative ratio) (cNOS; L-PCA added 2.5 mM) | Expressed amount of cNOS (Relative ratio) (cNOS; L-PCA added 5.0 mM) | Expressed amount of cNOS (Relative ratio) (cNOS; L-PCA added 10.0 mM)
1 | N=C(N)NCCC[C@H](N)C(=O)O [Comparative Example 2, L-arginine, reference compound] | 1.9 nmol/10^3 cells | – | – | – | – | – | – | –
2 | O=C1CC[C@@H](C(=O)O)N1 [Example 1, L-2-pyrrolidone-5-carboxylic acid] | 1.4 nmol/10^3 cells | – | – | – | – | – | – | –
3 | O=C1CC[C@@H](C(=O)O)N1 [L-PCA, L-2-pyrrolidone-5-carboxylic acid] | – | not detected | exhibited a promoting effect on the production of nitric oxide | tended to increase | 1.00 | 1.25 | 1.40 | 1.75
